Data from ChEMBL document CHEMBL1131004, “Optimizing the binding of fullerene inhibitors of the HIV-1 protease through predicted increases in hydrophobic desolvation” (J Med Chem, 1998).

target: Human immunodeficiency virus type 1 protease (Human immunodeficiency virus 1, UniProt Q72874); test: Binding affinity towards HIV-1 Protease

`CC(C)C1CC(O)C(C(C)C)C23c4c5c6c7c8c9c(c%10c%11c2c2c4c4c%12c5c5c6c6c8c8c%13c9c9c%10c%10c%11c%11c2c2c4c4c%12c%12c5c5c6c8c6c8c%13c9c9c%10c%10c%11c2c2c4c4c%12c5c6c5c8c9c%10c2c45)C713` (stereo not drawn) and `OC(c1ccccc1)C1(c2ccccc2)C23c4c5c6c7c8c9c(c%10c%11c2c2c4c4c%12c5c5c6c6c8c8c%13c9c9c%10c%10c%11c%11c2c2c4c4c%12c%12c5c5c6c8c6c8c%13c9c9c%10c%10c%11c2c2c4c4c%12c5c6c5c8c9c%10c2c45)C731` (stereo not drawn) are within 1.5-fold of each other in Ki: 150 nM for the first, 103 nM for the second.

Molecule `O=C(O)CCC(=O)NCCc1ccc(C2(c3ccc(CCNC(=O)CCC(=O)O)cc3)C34c5c6c7c8c9c%10c(c%11c%12c3c3c5c5c%13c6c6c7c7c9c9c%14c%10c%10c%11c%11c%12c%12c3c3c5c5c%13c%13c6c6c7c9c7c9c%14c%10c%10c%11c%11c%12c3c3c5c5c%13c6c7c6c9c%10c%11c3c56)C824)cc1` has a Ki of 5000 nM.
